Data as given in PubChem BioAssay (NCI).
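Cultured in 96-well plates, cells were exposed to test compound for 48 hours across five concentrations. Here, GI50 denotes the concentration required for 50% inhibition of growth. The concentration for full growth arrest is given as TGI.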

Experiments:
Assay in all cases: NCI anticancer screen, dose series, 48 h
[1] = test system: EKVX NSCLC
[2] = test system: OVCAR-4 ovarian
[3] = test system: SR leukemia
[4] = test system: A498 renal
[5] = test system: NCI-H23 lung
[6] = test system: SF-295 CNS
[7] = test system: MOLT-4 leukemia
[8] = test system: COLO 205 colon
[9] = test system: OVCAR-3 ovarian
[10] = test system: RXF 393 renal
[11] = test system: M14 melanoma
[12] = test system: SK-MEL-28 melanoma
[13] = test system: HS 578T breast
[14] = test system: MCF7 breast
[15] = test system: BT-549 breast
[16] = test system: UO-31 renal
[17] = test system: TK-10 renal
[18] = test system: K-562 leukemia
[19] = test system: HCC-2998 colon
[20] = test system: IGROV1 ovarian
[21] = test system: MDA-MB-231 breast
[22] = test system: SK-MEL-5 melanoma
[23] = test system: CCRF-CEM leukemia
[24] = test system: UACC-257 melanoma
[25] = test system: SK-MEL-2 melanoma
[26] = test system: DU-145 prostate
[27] = test system: HL-60(TB) leukemia
[28] = test system: NCI-H460 lung
[29] = test system: HCT-15 colon

Question: `COc1cc2c3c(n(CCCN)c(=O)c2cc1OC)-c1ccc(N(C)C)cc1C3=O` was tested. Which GI50 [1] did it give?
Answer: 16.7 µM

Question: What about the TGI [1] of the same molecule?
Answer: 32 µM

Question: And the GI50 [2]?
Answer: 17.5 µM

Question: What about the TGI [2] of the same molecule?
Answer: 33.8 µM

Question: And the GI50 [3]?
Answer: 18.7 µM

Question: What about the TGI [3] of the same molecule?
Answer: 74.5 µM

Question: And the GI50 [4]?
Answer: 21 µM

Question: What about the TGI [4] of the same molecule?
Answer: 37.2 µM

Question: What about the GI50 [5] of the same molecule?
Answer: 16.6 µM

Question: And the TGI [5]?
Answer: 30.5 µM

Question: What about the GI50 [6] of the same molecule?
Answer: 17.6 µM

Question: What about the TGI [6] of the same molecule?
Answer: 37.9 µM

Question: And the GI50 [7]?
Answer: 7.01 µM

Question: And the TGI [7]?
Answer: 19.5 µM

Question: And the GI50 [8]?
Answer: 17.4 µM

Question: What about the TGI [8] of the same molecule?
Answer: 35.5 µM

Question: What about the GI50 [9] of the same molecule?
Answer: 20.4 µM

Question: And the TGI [9]?
Answer: 42.2 µM

Question: What about the GI50 [10] of the same molecule?
Answer: 6.53 µM

Question: What about the TGI [10] of the same molecule?
Answer: 14.8 µM

Question: And the GI50 [11]?
Answer: 16.4 µM

Question: And the TGI [11]?
Answer: 32.6 µM

Question: What about the GI50 [12] of the same molecule?
Answer: 12.3 µM

Question: And the TGI [12]?
Answer: 27.6 µM

Question: And the GI50 [13]?
Answer: 27.9 µM

Question: What about the TGI [13] of the same molecule?
Answer: 61.5 µM

Question: And the GI50 [14]?
Answer: 14.8 µM

Question: And the TGI [14]?
Answer: 36.7 µM

Question: What about the GI50 [15] of the same molecule?
Answer: 14.5 µM

Question: What about the TGI [15] of the same molecule?
Answer: 28.8 µM

Question: And the GI50 [16]?
Answer: 16.9 µM

Question: What about the TGI [16] of the same molecule?
Answer: 36.1 µM

Question: What about the GI50 [17] of the same molecule?
Answer: 18.5 µM

Question: What about the TGI [17] of the same molecule?
Answer: 37.2 µM

Question: And the GI50 [18]?
Answer: 4.09 µM

Question: And the TGI [18]?
Answer: 17.4 µM

Question: And the GI50 [19]?
Answer: 3.29 µM

Question: What about the TGI [19] of the same molecule?
Answer: 7.68 µM

Question: And the GI50 [20]?
Answer: 14.8 µM

Question: What about the TGI [20] of the same molecule?
Answer: 47 µM

Question: What about the GI50 [21] of the same molecule?
Answer: 11.9 µM

Question: What about the TGI [21] of the same molecule?
Answer: 25.5 µM

Question: And the GI50 [22]?
Answer: 6.4 µM

Question: And the TGI [22]?
Answer: 13.7 µM

Question: And the GI50 [23]?
Answer: 1.98 µM

Question: What about the TGI [23] of the same molecule?
Answer: 5.16 µM

Question: And the GI50 [24]?
Answer: 23.5 µM

Question: And the TGI [24]?
Answer: 48.3 µM

Question: And the GI50 [25]?
Answer: 19.6 µM

Question: What about the TGI [25] of the same molecule?
Answer: 38.1 µM

Question: And the GI50 [26]?
Answer: 2.38 µM

Question: And the TGI [26]?
Answer: 6.6 µM

Question: What about the GI50 [27] of the same molecule?
Answer: 21.6 µM

Question: And the TGI [27]?
Answer: 47.7 µM

Question: What about the GI50 [28] of the same molecule?
Answer: 4.45 µM

Question: And the TGI [28]?
Answer: 26.1 µM

Question: What about the GI50 [29] of the same molecule?
Answer: 13.9 µM

Question: And the TGI [29]?
Answer: 27.1 µM
